System: MV-4-11 cells
Experiment: Gene expression microarray analysis (Affymetrix PrimeView) and GSEA
Type: cell-based, human
Set-up: RFU PODN (11730768_x_at) / Fold change /veh PODN (11730768_x_at) / RFU LINC00158 (11744669_a_at) / Fold change /veh LINC00158 (11744669_a_at) / RFU DUSP10 (11751237_a_at) / Fold change /veh DUSP10 (11751237_a_at) / RFU ID3 (11757404_x_at) / Fold change /veh ID3 (11757404_x_at) / RFU PLEKHG5 (11737974_s_at) / Fold change /veh PLEKHG5 (11737974_s_at) / RFU LRRC4B (11730491_at) / Fold change /veh LRRC4B (11730491_at) / RFU GIMAP4 (11747438_a_at) / Fold change /veh GIMAP4 (11747438_a_at) / RFU KRT8 (11758183_x_at) / Fold change /veh KRT8 (11758183_x_at) / RFU CNN1 (11734310_a_at) / Fold change /veh CNN1 (11734310_a_at) / RFU VPS37D (11726825_at) / Fold change /veh VPS37D (11726825_at) / RFU C10orf10 (11716522_x_at) / Fold change /veh C10orf10 (11716522_x_at) / RFU KIR2DL2 /// KIR2DL4 /// KIR2DL5A /// KIR2DL5B /// KIR2DS1 /// KIR2DS2 /// KIR2DS3 /// KIR2DS4 /// KIR3DL3 /// KIR3DL3 /// KIR3DS1 (11738374_at) / Fold change /veh KIR2DL2 /// KIR2DL4 /// KIR2DL5A /// KIR2DL5B /// KIR2DS1 /// KIR2DS2 /// KIR2DS3 /// KIR2DS4 /// KIR3DL3 /// KIR3DL3 /// KIR3DS1 (11738374_at) / RFU C1QL1 (11718748_at) / Fold change /veh C1QL1 (11718748_at) / RFU TMPRSS4 (11747572_a_at) / Fold change /veh TMPRSS4 (11747572_a_at) / RFU HAMP (11756126_x_at) / Fold change /veh HAMP (11756126_x_at) / RFU RNFT2 (11725882_a_at) / Fold change /veh RNFT2 (11725882_a_at) / RFU NR4A2 (11747474_a_at) / Fold change /veh NR4A2 (11747474_a_at) / RFU ABCC12 (11746883_a_at) / Fold change /veh ABCC12 (11746883_a_at) / RFU TMEM136 (11760407_x_at) / Fold change /veh TMEM136 (11760407_x_at) / RFU CLDN22 /// WWC2 (11732394_at) / Fold change /veh CLDN22 /// WWC2 (11732394_at) / RFU HLA-DPB1 (11760878_x_at) / Fold change /veh HLA-DPB1 (11760878_x_at) / RFU SPINT1 (11716480_a_at) / Fold change /veh SPINT1 (11716480_a_at) / RFU GAP43 (11754022_s_at) / Fold change /veh GAP43 (11754022_s_at) / RFU A4GNT (11735810_at) / Fold change /veh A4GNT (11735810_at) / RFU PRB3 (11715151_x_at) / Fold change /veh PRB3 (11715151_x_at) / RFU TUBB4B (11761932_at) / Fold change /veh TUBB4B (11761932_at) / RFU CAPN14 (11732068_a_at) / Fold change /veh CAPN14 (11732068_a_at) / RFU TMCC2 (11721928_a_at) / Fold change /veh TMCC2 (11721928_a_at) / RFU IRGQ (11745062_a_at) / Fold change /veh IRGQ (11745062_a_at) / RFU FAM174B (11720279_a_at) / Fold change /veh FAM174B (11720279_a_at) / RFU TMPRSS4 (11748680_a_at) / Fold change /veh TMPRSS4 (11748680_a_at) / RFU FAM212B (11763350_a_at) / Fold change /veh FAM212B (11763350_a_at) / RFU PLEKHG5 (11743358_a_at) / Fold change /veh PLEKHG5 (11743358_a_at) / RFU ZSCAN30 (11745921_a_at) / Fold change /veh ZSCAN30 (11745921_a_at) / RFU CMKLR1 (11741424_a_at) / Fold change /veh CMKLR1 (11741424_a_at) / RFU LOC101060620 /// MAPK8IP1 (11723275_at) / Fold change /veh LOC101060620 /// MAPK8IP1 (11723275_at) / RFU SPTSSB (11747773_x_at) / Fold change /veh SPTSSB (11747773_x_at) / RFU PRSS12 (11739890_at) / Fold change /veh PRSS12 (11739890_at) / RFU BIN1 (11741810_x_at) / Fold change /veh BIN1 (11741810_x_at) / RFU WNT11 (11732464_a_at) / Fold change /veh WNT11 (11732464_a_at) / RFU C10orf10 (11716521_a_at) / Fold change /veh C10orf10 (11716521_a_at) / RFU C5orf56 (11738089_at) / Fold change /veh C5orf56 (11738089_at) / RFU CYB561 (11721691_x_at) / Fold change /veh CYB561 (11721691_x_at) / RFU ANKRD19P (11752326_a_at) / Fold change /veh ANKRD19P (11752326_a_at) / RFU OR2T12 /// OR2T33 /// OR2T8 (11738714_s_at) / Fold change /veh OR2T12 /// OR2T33 /// OR2T8 (11738714_s_at) / RFU VCAN (11748164_a_at) / Fold change /veh VCAN (11748164_a_at) / RFU JSRP1 (11732532_at) / Fold change /veh JSRP1 (11732532_at) / RFU KRTAP10-11 (11738290_x_at) / Fold change /veh KRTAP10-11 (11738290_x_at) / RFU MYO3A (11730013_a_at) / Fold change /veh MYO3A (11730013_a_at) / RFU EBF3 (11725865_a_at) / Fold change /veh EBF3 (11725865_a_at) / RFU CAMK2N1 (11719241_x_at) / Fold change /veh CAMK2N1 (11719241_x_at) / RFU C5orf56 (11738088_a_at) / Fold change /veh C5orf56 (11738088_a_at) / RFU OLFML3 (11715873_a_at) / Fold change /veh OLFML3 (11715873_a_at) / RFU LOC100653217 /// NTM (11731650_a_at) / Fold change /veh LOC100653217 /// NTM (11731650_a_at) / RFU MAPK11 (11762145_a_at) / Fold change /veh MAPK11 (11762145_a_at) / RFU FIZ1 (11724087_x_at) / Fold change /veh FIZ1 (11724087_x_at) / RFU OASL (11726364_x_at) / Fold change /veh OASL (11726364_x_at) / RFU SOX15 (11748057_x_at) / Fold change /veh SOX15 (11748057_x_at) / RFU CD79A (11719716_a_at) / Fold change /veh CD79A (11719716_a_at) / RFU HIST1H1D (11736915_at) / Fold change /veh HIST1H1D (11736915_at) / RFU CASKIN2 (11723855_a_at) / Fold change /veh CASKIN2 (11723855_a_at) / RFU LOC730098 (11760151_x_at) / Fold change /veh LOC730098 (11760151_x_at) / RFU OR4N2 (11742367_at) / Fold change /veh OR4N2 (11742367_at) / RFU PRRT2 (11749266_a_at) / Fold change /veh PRRT2 (11749266_a_at) / RFU SNX32 (11753110_a_at) / Fold change /veh SNX32 (11753110_a_at) / RFU CDHR5 (11726645_a_at) / Fold change /veh CDHR5 (11726645_a_at) / RFU RCAN1 (11760418_a_at) / Fold change /veh RCAN1 (11760418_a_at) / RFU FAM167A (11723789_a_at) / Fold change /veh FAM167A (11723789_a_at) / RFU FAM26E (11764081_at) / Fold change /veh FAM26E (11764081_at) / RFU ISYNA1 (11749810_s_at) / Fold change /veh ISYNA1 (11749810_s_at) / RFU ACY1 (11761880_at) / Fold change /veh ACY1 (11761880_at) / RFU 11764098_at / Fold change /veh 11764098_at / RFU SAMD14 (11745864_x_at) / Fold change /veh SAMD14 (11745864_x_at) / RFU NPB (11741838_a_at) / Fold change /veh NPB (11741838_a_at) / RFU TMPRSS6 (11731388_a_at) / Fold change /veh TMPRSS6 (11731388_a_at) / RFU KRTAP10-2 (11738614_at) / Fold change /veh KRTAP10-2 (11738614_at) / RFU ARHGAP8 /// PRR5-ARHGAP8 (11727945_x_at) / Fold change /veh ARHGAP8 /// PRR5-ARHGAP8 (11727945_x_at) / RFU KRTAP5-7 /// NADSYN1 (11734609_at) / Fold change /veh KRTAP5-7 /// NADSYN1 (11734609_at) / RFU RASL12 (11751679_a_at) / Fold change /veh RASL12 (11751679_a_at) / RFU CDKN2B (11736163_a_at) / Fold change /veh CDKN2B (11736163_a_at) / RFU PRF1 (11729649_at) / Fold change /veh PRF1 (11729649_at) / RFU, ZNF638 /// ZNF638-IT1 / Fold change vs veh, ZNF638 /// ZNF638-IT1 / RFU, PANK3 / Fold change vs veh, PANK3 / RFU, SH3YL1 / Fold change vs veh, SH3YL1 / RFU, ZEB2 / Fold change vs veh, ZEB2 / RFU, NRIP1 / Fold change vs veh, NRIP1 / RFU, PTTG1IP / Fold change vs veh, PTTG1IP / RFU, CAPN2 / Fold change vs veh, CAPN2 / RFU, MED14 / Fold change vs veh, MED14 / RFU, SNORA58 / Fold change vs veh, SNORA58 / RFU, C1orf63 / Fold change vs veh, C1orf63 / RFU, LRRFIP1 / Fold change vs veh, LRRFIP1 / RFU, NDUFAF7 / Fold change vs veh, NDUFAF7 / RFU, SLC12A2 / Fold change vs veh, SLC12A2 / RFU, IBTK / Fold change vs veh, IBTK / RFU, ESF1 / Fold change vs veh, ESF1 / Fold change vs veh, TMEM50B / RFU, TAOK1 / Fold change vs veh, TAOK1 / RFU, ACBD3 / Fold change vs veh, ACBD3 / RFU, TMA16 / Fold change vs veh, TMA16 / RFU, RWDD3 / Fold change vs veh, RWDD3 / RFU, BCAT1 / Fold change vs veh, BCAT1 / RFU, EDEM3 / Fold change vs veh, EDEM3 / RFU, TMEM33 / Fold change vs veh, TMEM33 / RFU, WDR75 / Fold change vs veh, WDR75 / RFU, AHCTF1 / Fold change vs veh, AHCTF1 / RFU, TFRC / Fold change vs veh, TFRC / RFU, ZDHHC17 / Fold change vs veh, ZDHHC17 / RFU, NOM1 / Fold change vs veh, NOM1 / RFU, ARL8B / Fold change vs veh, ARL8B / RFU, ZBTB11 / Fold change vs veh, ZBTB11 / RFU, TAMM41 / Fold change vs veh, TAMM41 / RFU, KIAA1704 /// LOC100996395 / Fold change vs veh, KIAA1704 /// LOC100996395 / RFU, ING1 / Fold change vs veh, ING1 / RFU, TRMT61B / Fold change vs veh, TRMT61B / RFU, FUBP3 / Fold change vs veh, FUBP3 / RFU, TP53 / Fold change vs veh, TP53 / RFU, TNKS2 / Fold change vs veh, TNKS2 / RFU, ZFP14 / Fold change vs veh, ZFP14 / RFU, ACTR2 / Fold change vs veh, ACTR2 / RFU, PPP3R1 / Fold change vs veh, PPP3R1 / RFU, PIK3R1 / Fold change vs veh, PIK3R1 / RFU, HNRNPA1 / Fold change vs veh, HNRNPA1 / RFU, RNF170 / Fold change vs veh, RNF170 / RFU, ZNF28 / Fold change vs veh, ZNF28 / RFU, RNGTT / Fold change vs veh, RNGTT / RFU, OGT / Fold change vs veh, OGT / RFU, BRD1 / Fold change vs veh, BRD1 / RFU, MARS / Fold change vs veh, MARS / RFU, ZNF655 / Fold change vs veh, ZNF655 / RFU, FAHD1 / Fold change vs veh, FAHD1 / RFU, BDP1 / Fold change vs veh, BDP1 / RFU, LRRCC1 / Fold change vs veh, LRRCC1 / RFU, ARID1A / Fold change vs veh, ARID1A / RFU, ZNF146 / Fold change vs veh, ZNF146 / RFU, ZNF330 / Fold change vs veh, ZNF330 / RFU, GPN3 / Fold change vs veh, GPN3 / RFU, C9orf123 / Fold change vs veh, C9orf123 / RFU, N4BP2L2 / Fold change vs veh, N4BP2L2 / RFU, ARFIP1 / Fold change vs veh, ARFIP1 / RFU, FAM179B / Fold change vs veh, FAM179B / RFU, BCL10 / Fold change vs veh, BCL10 / RFU, UHRF1BP1L / Fold change vs veh, UHRF1BP1L / RFU, BET1 / Fold change vs veh, BET1 / RFU, CNOT2 / Fold change vs veh, CNOT2 / RFU, ZNF268 / Fold change vs veh, ZNF268 / Fold change vs veh, ZNF507 / RFU, DGCR2 / Fold change vs veh, DGCR2 / RFU, WDSUB1 / Fold change vs veh, WDSUB1 / Fold change vs veh, HSP90B1 /// MIR3652 / RFU, ADSS / Fold change vs veh, ADSS / RFU, GK / Fold change vs veh, GK / RFU, ZNF148 / Fold change vs veh, ZNF148 / RFU, TAF9 / Fold change vs veh, TAF9 / RFU, SLC1A5 / Fold change vs veh, SLC1A5 / RFU, SLMO2 / Fold change vs veh, SLMO2 / RFU, ABCC4 / Fold change vs veh, ABCC4 / RFU, LOC101060439 /// RAP1B / Fold change vs veh, LOC101060439 /// RAP1B / RFU, RFX7 / Fold change vs veh, RFX7 / RFU, GTPBP10 / Fold change vs veh, GTPBP10 / RFU, CNEP1R1 / Fold change vs veh, CNEP1R1 / RFU, BIVM-ERCC5 /// ERCC5 / Fold change vs veh, BIVM-ERCC5 /// ERCC5 / RFU, ILF3 / Fold change vs veh, ILF3 / RFU 11762660_at / Fold change /veh 11762660_at / RFU VCAN (11757783_s_at) / Fold change /veh VCAN (11757783_s_at) / RFU DDX43 (11728927_at) / Fold change /veh DDX43 (11728927_at) / RFU KRT8 (11758188_x_at) / Fold change /veh KRT8 (11758188_x_at) / RFU NKD1 (11759106_at) / Fold change /veh NKD1 (11759106_at) / RFU SRD5A1 (11742802_a_at) / Fold change /veh SRD5A1 (11742802_a_at) / RFU TPSAB1 /// TPSB2 (11721975_s_at) / Fold change /veh TPSAB1 /// TPSB2 (11721975_s_at) / RFU GSTM3 (11746129_a_at) / Fold change /veh GSTM3 (11746129_a_at) / RFU IL23R (11737362_x_at) / Fold change /veh IL23R (11737362_x_at) / RFU TMEM51 (11727254_a_at) / Fold change /veh TMEM51 (11727254_a_at) / RFU PIWIL2 (11732686_x_at) / Fold change /veh PIWIL2 (11732686_x_at) / RFU ORM1 (11744905_x_at) / Fold change /veh ORM1 (11744905_x_at) / RFU CCDC152 (11743942_at) / Fold change /veh CCDC152 (11743942_at) / RFU ECM1 (11717891_a_at) / Fold change /veh ECM1 (11717891_a_at) / RFU IL23R (11748794_a_at) / Fold change /veh IL23R (11748794_a_at) / RFU TNFAIP8L3 (11732012_x_at) / Fold change /veh TNFAIP8L3 (11732012_x_at) / RFU MBOAT4 (11741988_at) / Fold change /veh MBOAT4 (11741988_at) / RFU 11764193_at / Fold change /veh 11764193_at / RFU TMEM53 (11763286_at) / Fold change /veh TMEM53 (11763286_at) / RFU MAGEB2 (11727129_at) / Fold change /veh MAGEB2 (11727129_at) / RFU TMEM200A (11744735_a_at) / Fold change /veh TMEM200A (11744735_a_at) / RFU CCDC152 (11751479_a_at) / Fold change /veh CCDC152 (11751479_a_at) / RFU FAM211A (11726209_a_at) / Fold change /veh FAM211A (11726209_a_at) / RFU RGS16 (11746705_a_at) / Fold change /veh RGS16 (11746705_a_at) / RFU VCAN (11755009_s_at) / Fold change /veh VCAN (11755009_s_at) / RFU RHOB (11743442_s_at) / Fold change /veh RHOB (11743442_s_at) / RFU RGS16 (11720943_a_at) / Fold change /veh RGS16 (11720943_a_at) / RFU RGS16 (11720944_at) / Fold change /veh RGS16 (11720944_at) / RFU, VPS4B / Fold change vs veh, VPS4B / RFU, CREB1 / Fold change vs veh, CREB1 / RFU, DNAJC13 / Fold change vs veh, DNAJC13 / RFU, GNAQ / Fold change vs veh, GNAQ / RFU, CDK5R1 / Fold change vs veh, CDK5R1 / RFU, ZRANB3 / Fold change vs veh, ZRANB3 / RFU, CUL4A / Fold change vs veh, CUL4A / RFU, CCNY / Fold change vs veh, CCNY / RFU, UFL1 / Fold change vs veh, UFL1 / RFU, COG3 / Fold change vs veh, COG3 / RFU, DIAPH2 / Fold change vs veh, DIAPH2 / RFU, SKA2 / Fold change vs veh, SKA2 / RFU, AFF3 / Fold change vs veh, AFF3 / RFU, LMF1 / Fold change vs veh, LMF1 / RFU, IPO11 / Fold change vs veh, IPO11 / RFU, DFFB / Fold change vs veh, DFFB / RFU, FOXP1 / Fold change vs veh, FOXP1 / RFU, CARD8 / Fold change vs veh, CARD8 / RFU, STRN3 / Fold change vs veh, STRN3 / RFU, ADK / Fold change vs veh, ADK / RFU, RASSF2 / Fold change vs veh, RASSF2 / RFU, WIPF1 / Fold change vs veh, WIPF1 / RFU, LARP1B / Fold change vs veh, LARP1B / RFU, RASA1 / Fold change vs veh, RASA1 / RFU, RB1 / Fold change vs veh, RB1 / RFU, PPFIA1 / Fold change vs veh, PPFIA1 / RFU, MAT2A / Fold change vs veh, MAT2A / RFU, CCT5 / Fold change vs veh, CCT5 / RFU, WDR92 / Fold change vs veh, WDR92 / RFU, CUX1 / Fold change vs veh, CUX1 / RFU, TTC7A / Fold change vs veh, TTC7A / RFU, TMEM135 / Fold change vs veh, TMEM135 / RFU, DEPTOR / Fold change vs veh, DEPTOR / RFU, CPM / Fold change vs veh, CPM / RFU, DNAJB6 / Fold change vs veh, DNAJB6 / RFU, CACNA2D3 / Fold change vs veh, CACNA2D3 / RFU, DTX4 / Fold change vs veh, DTX4 / RFU, TFCP2 / Fold change vs veh, TFCP2 / RFU, GMCL1 /// GMCL1P1 / Fold change vs veh, GMCL1 /// GMCL1P1 / RFU, AEBP2 / Fold change vs veh, AEBP2 / RFU, SNHG1 /// SNORD22 /// SNORD25 /// SNORD26 /// SNORD27 /// SNORD28 /// SNORD29 /// SNORD31 / Fold change vs veh, SNHG1 /// SNORD22 /// SNORD25 /// SNORD26 /// SNORD27 /// SNORD28 /// SNORD29 /// SNORD31 / Fold change (Aza/veh), C12orf56 (ProbeSet 11735607_a_at) / Fold change (ACY-1035/veh), C12orf56 (ProbeSet 11735607_a_at) / Fold change (Aza/veh), FGFR1OP (ProbeSet 11751329_s_at) / Fold change (ACY-1035/veh), FGFR1OP (ProbeSet 11751329_s_at) / Fold change (Aza/veh), VPS36 (ProbeSet 11739960_a_at) / Fold change (ACY-1035/veh), VPS36 (ProbeSet 11739960_a_at) / RFU SYPL1 (11715823_x_at) / Fold change /veh SYPL1 (11715823_x_at) / RFU IGFBP7 (11715501_s_at) / Fold change /veh IGFBP7 (11715501_s_at) / RFU REEP3 (11722064_at) / Fold change /veh REEP3 (11722064_at) / RFU IGLL1 (11728026_x_at) / Fold change /veh IGLL1 (11728026_x_at): dose or concentration left out as unconfirmed
Conditions: ProbeSet 11763895_x_at; LIST B

For `Nc1ccc(-c2cccs2)cc1NC(=O)c1ccc2c(c1)cc(C1CC1)n2CCN1CCOCC1` [ACY-1035], the “RFU, SNORA58” value was 14.97 RFU.

— PMC5218480 (PLoS ONE, 2017)
